Patent US20230027620A1, “PENTAPEPTIDE AND METHODS OF USE THEREOF” (THE BOARD OF TRUSTEES OF THE UNIVERSITY OF ILLINOIS, priority 2019, published 2023)
Entries after “also recorded” stand apart in the source; their conditions may differ. Starred links: 1 amine or outer side, 2 acyl side, 3 side chain; linkers in the order of their positions; H or OH if unused. Non-standard residues stand in square brackets, D forms with d. No end group written: not given here. (CH2)6 = -(CH2)6- hydrocarbon linking residues between repeats, C(CCC[*:2])CC[*:1]

test system: corneal epithelial wound in C57BLl6J mice; experiment: Murine corneal epithelial injury (wound healing) model; format: in vivo; conditions: applied topically to mice injured using a standardized wounding method; summary statement
Description: Wounded areas were treated with Hst5, SHRGY (SEQ ID NO:2) or SP1 peptides (n=7 for each group), each tested at 80 μM concentration. Wound areas at multiple time points were measured using Image J software. […] Statistical significance was determined by a two-way ANOVA with Bonferroni post-hoc test. **P<0.01, ***P<0.001. % Wound area=(Wound area at time X/Wound area at time 0)×100.
Wound Healing Assay. Corneal wounding experiments in mice were conducted in compliance with the Association for Research in Vision and Ophthalmology (ARVO) Statement for the Use of Animals in Ophthalmic and Vision Research. The protocol was approved by the Animal Care & Use Committee of the University of Illinois at Chicago. Twelve-to-nineteen week old C57BLl6J (Jackson Laboratory, Bar Harbor, Me.) mice were anesthetized with intraperitoneal injection of ketamine (100 mg/kg) and xylazine (5 mg/kg). After applying two drops of topical 0.5% proparacaine, a 2.0-mm area of the central epithelium was demarcated using 2-mm disposable biopsy punch and removed by an AlgerBrush II (The Alger Company, Lago Vista, Tex.). In the treatment (n=7) or the control (n=7) group, Histatin=5 (80 μM), SHRGY peptide (SEQ ID NO:2; 80 μM), or SP1 (80 μM) was applied to the cornea three times a day. At 0, 18 and 24 hours, the corneas were stained with fluorescein (FUL-GLO® Fluorescein Sodium ophthalmic strips, Akorn, Lake forest, Ill.) and photographed using a NIKON FS-2 photo-slit lamp with a NIKON D200 camera (Melville, N.Y.). Wound sizes were compared with the baseline for each mouse and the percentages of wound closure was measured using Image J software.
For immunofluorescence, excised whole mouse eye was snap frozen in optimal cutting temperature compound (OCT; (Fisher Healthcare, Galderma, Calif.). The frozen tissues were cut into 10 μm cryosections (ThermoScientific NX50 Cryomicrotome, Waltham, Mass.) and subsequently were mounted on Superfrost plus slides (Thermofisher, Waltham, Mass.). Slides were fixed for 20 minutes in methanol, washed several times with PBS, stained with DAPI for 2 minutes, and further washed with PBS and deionized water. The slides were then mounted in Fluoro gel with Tris buffer (Electron Microscopy Sciences, Hattfield, Pa.) and observed under a confocal microscope (Zeiss LSM 710 Confocal Microscope, Oberkochen, Germany) using a 10× objective.
Thus, Hst5 and SHRGY (SEQ ID NO:2)-containing peptides can enhance wound healing in a well-vetted model of murine corneal epithelial injury.

Molecule	corneal healing
SHRGY-(CH2)6-SHRGY-(CH2)6-SHRGY-(CH2)6-SHRGY (SHRGY[(CH2)6]SHRGY[(CH2)6]SHRGY[(CH2)6]SHRGY) [multimer of SHRGY composed of 4 repeating units]	significantly improve corneal healing

test system: epithelial cell migration; experiment: In vitro scratch assay, truncation and scrambled peptide series (FIG. 1; cell line not given); format: cell-based; conditions: 80 μM; FIG. 1; vs untreated control
Description: Peptides were tested for efficacy in accelerating scratch closure rates. Negative controls included untreated and multiple scrambled peptide (SP) controls. All peptides were tested at 80 μM concentration. All experiments were performed in triplicate with three technical replicates for each experiment. Statistical significance was determined by one-way ANOYA with Dunnett's post-hoc test. *p<0.05; **p<0.01; ***p<0.001. Relative closure=(% closure of treated sample)/(% closure of Untreated control).
In Vitro Scratch Assay. HCE, HCLE, HELA and MCF-7 cells were cultured in a 24-well plate at 2.5×10^5 (cells/well) seeding density, and were grown to confluence on a 24-well plate. Subsequently, a straight-line scratch mark was made with a sterile P200 pipette tip. The cells were then washed twice with phosphate-buffered saline (PBS) to remove cellular debris. Wounded areas were then treated with the peptides provided in Table 5 at various concentrations in standard medium with reduced serum conditions (0.5% FBS in MEM medium (HCE), growth factor-free K-SFM media (HCLE), 1% FBS in DMEM medium (HeLa) and 0.5% FBS in RPMI 1640 medium (MCF-7)). Scratches were photographed microscopically at 4× magnification (Image Express Micro, Molecular Devices, San Jose, Calif.) every hour over the course of the experiment. The wound area at each time-point was measured using Image J software (Image J 1.47v, NIH, Thornwood, Bethesda, Md.). Relative wound closure was calculated by dividing the closure of the treated wound by that of the untreated wound. For all the experiments including truncated histatin-5, a final concentration of 80 μM was used. PD98059 (Calbiochem, San Diego, Calif.) at final concentration of 50 μM was used as a specific inhibitor of MEK. PD98059 was added to cell cultures at the same time as histatin peptides.
To identify the residues of Hst5 required for epithelial cell migration, serial truncation experiments were performed, progressively deleting residues in Hst5. […] All peptides were tested at 80 μM. […] Thus, the SHRGY (SEQ ID NO:2) sequence is necessary and sufficient to promote epithelial migration rates in in vitro scratch assays.

Molecule	scratch (wound) closure rates, relative closure
DSHAKRHIHGYKRKFHEKHHSH (DSHAKRHHGYKRKFHEKHHSH) [Hst5(1-21)]	no significant increase in wound closure rates
c-SHRGY: cyclized SHRGY peptide, prepared using a linker/spacer composed of 6-(Fmoc-amino)caproic acid, 6-(Fmoc-amino)hexanoic acid (cyclo(SHRGY); not fully specified (C-terminus))	significant increases in scratch closure rates
RYHGS [SP4]	did not significantly increase wound closure rates
RYSGH [SP3]	did not significantly increase wound closure rates
DSHAKRHHGYKRKFHEKHHSHRG [Hst5(1-23)]	no significant increase in wound closure rates
TNQQK [SP5]	no significant improvement in the wound closure rates
DSHAKRHHGYKRKFHEKHH [Hst5(1-19)]	no significant increase in wound closure rates
DSHAKRHHGYKRKF [Hst5(1-14)]	no significant increase in wound closure rates
SHRGY-(CH2)6-SHRGY-(CH2)6-SHRGY-(CH2)6-SHRGY (SHRGY[(CH2)6]SHRGY[(CH2)6]SHRGY[(CH2)6]SHRGY) [multimer of SHRGY composed of 4 repeating units]	significant increases in scratch closure rates
DSHAKRHHGYKRKFHEKHHSHR [Hst5(1-22)]	no significant increase in wound closure rates
HSHKEGHHYKRFKRKHHADSHRGY [SP2]	significant increases in scratch closure rates
RHHGYKRKFHEKHHSHRGY [Hst5(5-24)]	significant increases in scratch closure rates

same assay, conditions: PD98059 50 μM added at the same time as Hst5

Molecule	effect of MEK inhibitor co-treatment on Hst5-promoted wound closure
COc1cccc(-c2cc(=O)c3ccccc3o2)c1N [PD98059]	eliminated the effects of Hst5 on promoting wound closure

same assay, conditions: summary statement: immortalized human corneal epithelial cells, immortalized human corneal limbal epithelial cells, HeLa human cells, mouse corneal wounding models

Molecule	epithelial migration
SHDGY [pentapeptide]	significantly enhance epithelial migration

test system: p-ERK1/2; experiment: Immunofluorescence imaging of p-ERK1/2 in scratched HCE monolayer; format: cell-based, Human; conditions: 80 μM, 45 minutes
Description: Immunofluorescence Imaging. HCE cells were seeded in 8-well chamber slide at 9×10^4 (cells/well) seeding density, and allowed to incubate to form a confluent monolayer. Subsequently, a straight-line scratch mark was made with a sterile P10 pipette tip. The cells were then washed with media to remove cellular debris. Wounded areas were subsequently left untreated or treated with Hst5, SP1 or SP2 at 80 μM concentrations in MEM media with 0.5% FBS for 45 minutes. Cells were then fixed with 4% paraformaldehyde for 30 minutes and permeabilized with 0.1% Triton X-100 for 5 minutes. After washing with PBS, cells were incubated at room temperature for 30 minutes with 5% bovine serum albumin (BSA) and 5% normal goat serum in PBS. Cells were subsequently incubated with primary antibodies diluted in 1% BSA against p-ERK1/2 (1:200) (Cell Signaling, Danver, Mass.) at 4° C. for 16 hours. After three washings with PBS, cells were incubated with fluorescein isothiocyanate-conjugated sheep anti-rabbit IgG antibody (BD Biosciences, San Jose, Calif.) (1:500) diluted in 1% BSA at room temperature for 60 minutes. After extensive washing with PBS, the cells were then stained with 4′,6-diamidino-2-phenylindole (DAPI; (Roche, Mannheim, GE) for 2 minutes for nuclear staining. The cells were mounted in Fluoro gel with Tris buffer (Electron Microscopy Sciences, Hattfield, Pa.) and observed under a confocal microscope (Zeiss LSM 710 Confocal Microscope, Oberkochen, Germany) using a 10× objective.
The level of activation/phosphorylation of ERK with and without wounding and with and without Hst5 application were investigated to determine whether the cellular signaling pathways underpinning the pro-migratory effects of Hst5 were similar to those of Hst1 in other epithelial cell types. Wounding causes an increased in phosphorylated form of ERK1/2 (p-ERK1/2). Immunolocalization was used to determine whether Hst5 application to a scratched sheet of epithelium would affect pERK1/2 levels.

Molecule	pERK1/2 immunolocalization / signal intensity
HSHKEGHHYKRFKRKHHADSHRGY [SP2]	increased pERK1/2 levels to a comparable intensity to Hst5; also recorded: elevated immunolocalization of pERK1/2
YHGHRHFRKHKKHKEAHSYDRGSH [SP1]	did not elicit the same increase in pERK1/2 immunolocalization
